{"source": "patent US20250295642A1", "about": "“FLUOROQUINOXALINONE DERIVATIVE FOR SELECTIVELY INHIBITING PARP1” (MEDSHINE DISCOVERY INC., priority 2022, published 2025)", "key": {"[1]": {"system": "MDA-MB-436 cells (BRCA1 mutation)", "experiment": "Anti-proliferation assay on MDA-MB-436 cells (BRCA1 mutation)", "assay_type": "cell-based", "conditions": "Homo sapiens, MDA-MB-436, 168 h; incubated for 7 days, chemiluminescent cell viability; read-out: IC50, proliferation inhibition on MDA-MB-436 cells (BRCA1 mutation)", "description": "MDA-MB-436 cells (BRCA1 mutation) were seeded in black 96-well plates with clear bottoms. Each well contained 135 μL of cell suspension with 3,500 MDA-MB-436 cells (BRCA1 mutation). The cell plate was incubated overnight in a CO2 incubator. A 400× stock solution of the test compound was prepared. […] 78 μL of medium was added to an intermediate plate. Subsequently, 2 μL of the serially diluted compound per well was transferred to the corresponding wells of the intermediate plate. 2 μL of DMSO was added to the vehicle control and blank control. After mixing well, 15 μL of the mixture per well was then transferred to the cell plate. […] The cell plate was incubated for 7 days in a CO2 incubator. The cell plate was removed and equilibrated to room temperature for 30 minutes. 75 μL of chemiluminescent cell viability assay reagent was added to each well. The cell plate was shaken on an orbital shaker for 3 minutes to induce cell lysis, followed by 10 minutes of incubation at room temperature to stabilize the luminescent signal."}, "[2]": {"experiment": "In vitro liver microsomal stability, human liver microsomes", "procedure": "(§1) The concentration of the compound in the samples was determined by LC-MS/MS.\n(§2) Experimental process: The incubation was performed using 96-well incubation plates, with individual plates labeled as T0, T5, T15, T30, T45, T60, Blank60, and NCF60. The reaction time points corresponding to the incubation plates were set at 0, 5, 15, 30, 45, and 60 minutes. In the Blank60 plate, no test compound or control compound was added, and the sample was collected after 60 minutes of incubation. In the NCF60 plate, potassium phosphate buffer was used in place of the NADPH regeneration system and incubated for 60 minutes. All time point samples were taken from individual wells.\nFor the T0, T5, T15, T30, T45, T60, and NCF60 plates, 5 μL of either the test or control compound working solution and 100 μL of microsomal working solution (with a liver microsomal protein concentration of 0.5 mg/mL) were added. Only microsomal working solution was added to the Blank60 well. In the Blank60 plate, only the microsomal working solution was added. Then, the incubation plates, except for TO and NCF60, including Blank60, T5, T15, T30, T45, and T60, were pre-incubated in a 37° C. water bath for approximately 10 minutes.\nFor samples in the TO plate, 180 μL of stop solution (where the stop solution was a solution of acetonitrile and methanol (95:5, V/V) containing 100 ng/mL tolbutamide) was added before adding the NADPH regeneration system working solution.\n50 μL of potassium phosphate buffer was added to each well of the NCF60 plate and incubated for 60 minutes.\nAfter the pre-incubation of Blank60, T5, T15, T30, T45, and T60 incubation plates, 44 μL of NADPH regeneration system working solution was added to each sample well to initiate the reaction. Therefore, for sample wells containing either the test compound or the control compound working solutions, the final reaction concentration was 1 μM, with the concentration of liver microsomes at 0.5 mg/mL. The final concentrations of DMSO and acetonitrile in the reaction system were 0.01% (v/v) and 0.99% (v/v), respectively.\nAfter incubation for an appropriate period (e.g., 5, 15, 30, 45, and 60 minutes), 180 μL of stop solution was added to each test compound and control compound sample well in the Blank60, T5, T15, T30, T45, T60, and NCF60 plates to stop the reaction.\nAll sample plates were shaken thoroughly and centrifuged for 10 minutes. A volume of 80 μL of the supernatant from each test compound was diluted to 240 L with a solution of acetonitrile (1:9, v/v) containing 0.1% formic acid for LC-MS/MS analysis."}, "DLD1 (BRCA2 KO) cells": {"system": "DLD1 (BRCA2 KO) cells", "experiment": "Anti-proliferation assay on DLD1 cells (BRCA2 KO)", "assay_type": "cell-based", "conditions": "Homo sapiens, DLD-1, 168 h; incubated for 7 days, chemiluminescent cell viability", "description": "DLD1 (BRCA2 KO) cells were seeded in white a 96-well plate with 80 μL of cell suspension per well, containing 1,000 DLD1 (BRCA2 KO) cells per well. The cell plate was incubated overnight in a CO2 incubator. The test compounds were 5-fold diluted with a multi-channel pipette to the 8th concentration, i.e., diluted from 2 mM to 0.0256 μM, and duplicate experiment was set. 78 μL of medium was added to an intermediate plate. Subsequently, 2 μL of the serially diluted compound per well was transferred to the corresponding wells of the intermediate plate and mixed well. 20 μL of the mixture per well was then transferred to the cell plate. The concentration of the compound transferred to the cell plate ranged from 10 μM to 0.128 nM. The cell plate was incubated for 7 days in a CO2 incubator. An additional cell plate was prepared to read the signal value on the day of compound addition, which served as the maximum value (Max in the following equation) for data analysis. The cell plate was added with 25 μL of chemiluminescent cell viability assay reagent per well and incubated at room temperature for 10 minutes to stabilize the luminescent signal. A multimode microplate reader was used for reading. […]."}, "PARP1": {"biological_target": "PARP1 (Homo sapiens (Human), UniProt P09874)", "sequence (P09874 whole entry)": "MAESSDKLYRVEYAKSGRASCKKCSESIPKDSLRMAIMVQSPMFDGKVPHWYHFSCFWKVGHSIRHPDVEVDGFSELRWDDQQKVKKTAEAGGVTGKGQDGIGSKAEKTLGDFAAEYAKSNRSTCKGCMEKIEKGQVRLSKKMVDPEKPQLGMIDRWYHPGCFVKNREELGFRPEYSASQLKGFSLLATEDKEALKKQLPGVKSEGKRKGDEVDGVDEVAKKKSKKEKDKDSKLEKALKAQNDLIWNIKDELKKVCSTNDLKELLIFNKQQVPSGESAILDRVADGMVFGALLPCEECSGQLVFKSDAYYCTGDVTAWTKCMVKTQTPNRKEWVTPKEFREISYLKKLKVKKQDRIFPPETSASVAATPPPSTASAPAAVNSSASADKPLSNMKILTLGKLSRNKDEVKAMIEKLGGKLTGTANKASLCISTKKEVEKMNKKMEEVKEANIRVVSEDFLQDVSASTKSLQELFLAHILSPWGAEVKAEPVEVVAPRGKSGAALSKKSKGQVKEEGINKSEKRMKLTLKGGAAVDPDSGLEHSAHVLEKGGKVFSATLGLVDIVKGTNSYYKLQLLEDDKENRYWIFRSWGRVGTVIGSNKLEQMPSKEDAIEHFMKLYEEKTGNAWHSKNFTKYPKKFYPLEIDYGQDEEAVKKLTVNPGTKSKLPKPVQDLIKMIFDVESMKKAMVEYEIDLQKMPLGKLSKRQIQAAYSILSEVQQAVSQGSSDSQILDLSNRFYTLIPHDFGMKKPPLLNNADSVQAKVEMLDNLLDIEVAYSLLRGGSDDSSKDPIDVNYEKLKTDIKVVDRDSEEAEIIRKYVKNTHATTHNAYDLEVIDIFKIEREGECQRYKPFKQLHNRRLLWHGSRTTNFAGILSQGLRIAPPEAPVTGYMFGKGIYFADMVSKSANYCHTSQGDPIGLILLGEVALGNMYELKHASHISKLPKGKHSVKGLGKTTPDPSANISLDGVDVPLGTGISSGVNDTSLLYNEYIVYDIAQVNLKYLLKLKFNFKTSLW", "experiment": "Binding activity between compound and PARP1, fluorescence polarization assay", "conditions": "8 nM PARP1, 5 nM fluorescent probe, 4 hours at room temperature", "description": "The fluorescence polarization assay was performed in 96-well black-walled plates (Greiner). The reaction buffer consisted of 50 mM Tris (pH 8), 0.001% Triton X100, 10 mM MgCl2, and 150 mM NaCl. Both the fluorescent probe and His-Avi-tagged PARP1 protein were manufactured by WuXi AppTec (Shanghai). In a 100 μL reaction system, 8 nM PARP1, 5 nM fluorescent probe, and the compounds were added respectively. The compound concentration was prepared following the starting concentration and dilution gradient in Table 1. […] The test sample was incubated at room temperature for 4 hours, protected from light. Fluorescence polarization values were measured using an En Vision plate reader. The obtained fluorescence polarization values and compound concentrations were subjected to nonlinear fitting using GraphPad 8.0 software to determine the IC50 values."}, "PARP2": {"biological_target": "PARP2 (Homo sapiens (Human), UniProt Q9UGN5)", "sequence (Q9UGN5 whole entry)": "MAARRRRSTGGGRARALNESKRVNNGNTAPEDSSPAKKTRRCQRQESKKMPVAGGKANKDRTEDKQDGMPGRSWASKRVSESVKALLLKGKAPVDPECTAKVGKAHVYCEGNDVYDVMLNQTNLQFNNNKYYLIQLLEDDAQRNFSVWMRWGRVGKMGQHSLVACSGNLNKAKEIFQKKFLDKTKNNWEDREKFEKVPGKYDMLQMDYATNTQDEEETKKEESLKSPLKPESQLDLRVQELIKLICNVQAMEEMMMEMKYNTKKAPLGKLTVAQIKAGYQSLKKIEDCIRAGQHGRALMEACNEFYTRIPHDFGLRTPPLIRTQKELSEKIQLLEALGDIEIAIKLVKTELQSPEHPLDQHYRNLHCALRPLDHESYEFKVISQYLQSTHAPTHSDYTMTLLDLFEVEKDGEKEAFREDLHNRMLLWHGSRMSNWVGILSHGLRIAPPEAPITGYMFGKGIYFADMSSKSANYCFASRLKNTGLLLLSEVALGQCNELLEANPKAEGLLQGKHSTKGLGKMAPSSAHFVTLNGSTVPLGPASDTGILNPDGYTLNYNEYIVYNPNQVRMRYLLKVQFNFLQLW", "experiment": "Binding activity between compound and PARP2, fluorescence polarization assay", "conditions": "3 nM PARP2, 5 nM fluorescent probe, 4 hours at room temperature", "description": "The fluorescence polarization assay was performed in 96-well black-walled plates (Greiner). The reaction buffer consisted of 50 mM Tris (pH 8), 0.001% Triton X100, 10 mM MgCl2, and 150 mM NaCl. Both the fluorescent probe and His-Avi-tagged PARP2 protein were manufactured by WuXi AppTec (Shanghai). In a 100 μL reaction system, 3 nM PARP2, 5 nM fluorescent probe, and the compounds were added respectively. The compound concentration was prepared following the starting concentration and dilution gradient in Table 2. The test sample was incubated at room temperature for 4 hours, protected from light. Fluorescence polarization values were measured using an EnVision plate reader. The obtained fluorescence polarization values and compound concentrations were subjected to nonlinear fitting using GraphPad 8.0 software to determine the IC50 values."}, "[3]": {"experiment": "In vitro liver microsomal stability, mouse liver microsomes", "procedure": "as §1, §2\nFor the T0, T5, T15, T30, T45, T60, and NCF60 plates, 5 μL of either the test or control compound working solution and 100 μL of microsomal working solution (with a liver microsomal protein concentration of 0.5 mg/mL) were added. Only microsomal working solution was added to the Blank60 well. In the Blank60 plate, only the microsomal working solution was added. Then, the incubation plates, except for TO and NCF60, including Blank60, T5, T15, T30, T45, and T60, were pre-incubated in a 37° C. water bath for approximately 10 minutes. […]"}}, "note": "pIC50: −log10 of the molar value.", "data": [{"compound": "CNC(=O)c1ccc(C2=CCN(Cc3ccc4c([nH]c(=O)c5cccnc54)c3F)CC2)c(F)n1", "note": "[Compound 27]", "values": [{"measurement": "pIC50", "setting": "[1]", "result": 9.16}, {"measurement": "CLint scaled at 1 μM", "setting": "[2]", "result": 9.5, "unit": "mL/min/kg"}, {"measurement": "half-life at 1 μM", "setting": "[2]", "result": 2.2, "unit": "h"}]}, {"compound": "CNC(=S)c1ccc(N2CCN(Cc3ccc4nc(C)c(=O)[nH]c4c3F)CC2)c(F)n1", "note": "[Trifluoroacetate of compound 5]", "values": [{"measurement": "pIC50", "setting": "[1]", "result": 8.92}]}, {"compound": "CNC(=O)c1ccc(N2CCN(Cc3cc(F)c4nc(C)c(=O)[nH]c4c3F)CC2)c(F)n1", "note": "[Trifluoroacetate of compound 22]", "values": [{"measurement": "pIC50", "setting": "[1]", "result": 8.24}, {"measurement": "pIC50", "setting": "DLD1 (BRCA2 KO) cells", "result": 8.35}]}, {"compound": "[2H]C([2H])([2H])NC(=O)c1ccc(C2=CCN(Cc3ccc4c([nH]c(=O)c5cccnc54)c3F)CC2)c(F)n1", "note": "[Compound 31]", "values": [{"measurement": "pIC50", "setting": "PARP1", "result": 8.33}, {"measurement": "pIC50", "setting": "PARP2", "result": "< 4.70"}, {"measurement": "pIC50", "setting": "[1]", "result": 9.12}, {"measurement": "CLint scaled at 1 μM", "setting": "[2]", "result": "< 8.6", "unit": "mL/min/kg"}, {"measurement": "half-life at 1 μM", "setting": "[2]", "result": "> 2.42", "unit": "h"}]}, {"compound": "CNC(=O)c1ccc(C2=CCN(Cc3ccc4c([nH]c(=O)c5cccn54)c3F)CC2)c(F)n1", "note": "[Compound 28]", "values": [{"measurement": "pIC50", "setting": "[1]", "result": 9.43}]}, {"compound": "[2H]C([2H])(c1ccc2c([nH]c(=O)c3cccnc32)c1F)N1CCN(c2ccc(C(=O)NC)nc2Cl)CC1", "note": "[Compound 45]", "values": [{"measurement": "pIC50", "setting": "[1]", "result": 9.57}]}, {"compound": "[2H]C([2H])(c1ccc2c([nH]c(=O)c3cccnc32)c1F)N1CCN(c2ccc(C(=O)NC)nc2F)CC1", "note": "[Compound 44]", "values": [{"measurement": "pIC50", "setting": "[1]", "result": 9.19}]}, {"compound": "CNC(=O)c1ccc(N2CCN(Cc3ccc4c([nH]c(=O)c5cc(F)cnc54)c3F)CC2)c(Cl)n1", "note": "[Compound 50]", "values": [{"measurement": "pIC50", "setting": "PARP1", "result": 8.10}, {"measurement": "pIC50", "setting": "PARP2", "result": "< 4.70"}, {"measurement": "pIC50", "setting": "[1]", "result": 9.39}]}, {"compound": "[2H]C([2H])([2H])NC(=O)c1ccc(N2CCN(Cc3ccc4c([nH]c(=O)c5cc(F)cnc54)c3F)CC2)c(Cl)n1", "note": "[Compound 52]", "values": [{"measurement": "pIC50", "setting": "PARP1", "result": 8.26}]}, {"compound": "CNC(=O)c1ccc2c(n1)CC[C@H]1CN(Cc3c(F)cc4nc(C)c(=O)[nH]c4c3F)CCN21", "note": "[Trifluoroacetate of compound 19]", "values": [{"measurement": "pIC50", "setting": "PARP1", "result": 7.85}, {"measurement": "pIC50", "setting": "PARP2", "result": "< 4.30"}, {"measurement": "pIC50", "setting": "DLD1 (BRCA2 KO) cells", "result": 7.62}]}, {"compound": "[2H]C([2H])([2H])NC(=O)c1ccc(N2CCN(Cc3ccc4c([nH]c(=O)c5cccnc54)c3F)CC2)c(F)n1", "note": "[Compound 29]", "values": [{"measurement": "pIC50", "setting": "[1]", "result": 8.94}, {"measurement": "CLint scaled at 1 μM", "setting": "[3]", "result": "< 38", "unit": "mL/min/kg"}]}]}
